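Step 1: Grow cells in 96-well plates. Step 2: Expose to compound for 48 hours at 5 concentrations. Step 3: Interpolate endpoints linearly; if unreached, use highest concentration. GI50 is the concentration that inhibits growth by half. Definition used: TGI = concentration required for complete inhibition of growth.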

Among the test systems are KM12 colon; LOX IMVI melanoma; MDA-MB-435; MDA-N; OVCAR-3 ovarian; SF-295 CNS; SK-MEL-28 melanoma; UO-31 renal; M14 melanoma; SF-539 CNS.
Holding throughout (assay): NCI tumour cell line growth inhibition, 48 h

As for `O=C(O)c1ccccc1Sc1ccc(C=C2NC(=S)N(c3ccccc3)C2=O)s1`, the TGI in the experiment on KM12 colon, in the experiment on LOX IMVI melanoma, in the experiment with MDA-MB-435, with MDA-N, in the experiment on OVCAR-3 ovarian and in the experiment on SF-295 CNS was greater than 100 µM each time. Besides, the TGI with SK-MEL-28 melanoma and in the experiment on UO-31 renal was greater than 100 µM in each case.
As to `O=[N+]([O-])c1ccc(CSC2=C(c3ccc(Cl)cc3)S/C(=C3\SC(SCc4ccc([N+](=O)[O-])cc4)=C(c4ccc(Cl)cc4)S3)S2)cc1`, the TGI in the experiment with KM12 colon, in the experiment on LOX IMVI melanoma, in the experiment on M14 melanoma, with MDA-MB-435, in the experiment on MDA-N and with OVCAR-3 ovarian was greater than 100 µM throughout. For the same compound, the TGI in the experiment on SF-295 CNS, in the experiment on SF-539 CNS and with SK-MEL-28 melanoma was greater than 100 µM each time.
In the case of `COc1ccc2cc(CNCCCCCCNC(=O)Nc3cccc4ccccc34)ccc2c1`, the TGI in the experiment on KM12 colon, in the experiment with LOX IMVI melanoma, in the experiment on M14 melanoma, in the experiment on MDA-MB-435, in the experiment on MDA-N and in the experiment with OVCAR-3 ovarian was greater than 100 µM each time. For the same compound, the TGI in the experiment on SF-295 CNS, in the experiment with SF-539 CNS and in the experiment with SK-MEL-28 melanoma was greater than 100 µM throughout.
Consider `C#C[C@]1(O)CC[C@H]2[C@@H]3CCC4=C/C(=N/OC(=O)c5cccc6cc7ccccc7nc56)CC[C@@H]4[C@H]3CC[C@@]21CC`, for which the TGI in the experiment with KM12 colon, with LOX IMVI melanoma, with M14 melanoma, in the experiment on MDA-MB-435, in the experiment on MDA-N and with OVCAR-3 ovarian was greater than 100 µM each time. For the same compound, the TGI in the experiment on SF-539 CNS and in the experiment with SK-MEL-28 melanoma was greater than 100 µM each time.
Turning to `Cc1cc2nc3c(N)nn(CCCN(C)C)c3nc2cc1C`, the TGI in the experiment on KM12 colon, in the experiment on M14 melanoma, in the experiment with MDA-MB-435, in the experiment on OVCAR-3 ovarian, in the experiment with SF-295 CNS and in the experiment with SF-539 CNS was greater than 100 µM each time. Also, the TGI with SK-MEL-28 melanoma and in the experiment on UO-31 renal was greater than 100 µM in each case.
Turning to `CCN(CC)C(=O)N[C@@H](CC(C)C)C(=O)NC`, the TGI in the experiment on KM12 colon, in the experiment on LOX IMVI melanoma, in the experiment with M14 melanoma, with MDA-MB-435, in the experiment with MDA-N and in the experiment with OVCAR-3 ovarian was greater than 100 µM each time. Besides, the TGI in the experiment on SF-295 CNS, in the experiment on SK-MEL-28 melanoma and with UO-31 renal was greater than 100 µM each time.
Take `C(/C=C(\Nc1ccccc1)c1ccc2ccccc2c1)=Nc1ccccc1`: the TGI in the experiment on KM12 colon was determined as 12.2 µM; in the experiment with LOX IMVI melanoma, 5.4 µM; in the experiment with M14 melanoma, 6.14 µM; in the experiment on MDA-MB-435 it was 1.27 µM; in the experiment with OVCAR-3 ovarian, 4.08 µM; in the experiment on SF-295 CNS it was 4.28 µM. Further, the TGI amounted to 4.1 µM in the experiment with SF-539 CNS, 0.961 µM in the experiment on SK-MEL-28 melanoma and 15.8 µM in the experiment with UO-31 renal.
On to `Cc1ccc2c(c1)CC1(Cc3cc(C)ccc3C1=O)C2=O`, for which the TGI in the experiment on LOX IMVI melanoma, in the experiment with M14 melanoma, with MDA-MB-435, in the experiment on MDA-N, in the experiment on OVCAR-3 ovarian and with SF-295 CNS was greater than 100 µM each time. Further, the TGI with SF-539 CNS, with SK-MEL-28 melanoma and in the experiment with UO-31 renal was greater than 100 µM throughout.
As to `COc1cc2c(c(O)c1OC)C(O)C1CCC(=O)N1C2c1ccc2c(c1)OCO2` (centres undefined), the TGI in the experiment with KM12 colon, in the experiment on LOX IMVI melanoma, in the experiment on M14 melanoma, in the experiment on MDA-MB-435, in the experiment on OVCAR-3 ovarian and in the experiment with SF-295 CNS was greater than 100 µM each time. For the same compound, the TGI with SF-539 CNS, with SK-MEL-28 melanoma and with UO-31 renal was greater than 100 µM each time.
Consider `CCOC(=O)c1c(NS(=O)(=O)c2ccccc2)sc2c1CCCC2`, for which the TGI in the experiment with KM12 colon was greater than 100 µM; with M14 melanoma, greater than 100 µM; with MDA-N it was greater than 100 µM; with OVCAR-3 ovarian, 82.3 µM; in the experiment with SF-295 CNS it was greater than 100 µM; with SF-539 CNS it was greater than 100 µM. Also, the TGI with UO-31 renal is greater than 100 µM.
Consider `CC(=O)N(C(=O)CC(=O)N1N=C(C)C(N=Nc2cccc([N+](=O)[O-])c2)C1=O)c1ccc(Cl)cc1` (centres undefined), for which the TGI in the experiment with KM12 colon, in the experiment on LOX IMVI melanoma, in the experiment on M14 melanoma, in the experiment on MDA-MB-435, in the experiment on MDA-N and with OVCAR-3 ovarian was greater than 10 µM each time. Further, the TGI with SF-295 CNS, in the experiment on SF-539 CNS and in the experiment with SK-MEL-28 melanoma was greater than 10 µM in each case.
In the case of `O=C(c1ccccc1)c1nn(-c2cccc(Cl)c2)c2nc3nc(-c4ccccc4)cc(=O)n3nc12`, the GI50 with KM12 colon, with LOX IMVI melanoma, in the experiment on M14 melanoma, in the experiment on MDA-MB-435, with OVCAR-3 ovarian and in the experiment on SF-295 CNS was greater than 25 µM each time. For the same compound, the GI50 in the experiment on SF-539 CNS, with SK-MEL-28 melanoma and in the experiment with UO-31 renal was greater than 25 µM in each case. Further, the TGI in the experiment with KM12 colon, in the experiment with LOX IMVI melanoma, in the experiment on M14 melanoma, with MDA-MB-435, with OVCAR-3 ovarian and in the experiment with SF-295 CNS was greater than 25 µM throughout. The TGI in the experiment on SF-539 CNS, in the experiment on SK-MEL-28 melanoma and in the experiment with UO-31 renal was greater than 25 µM each time.
With `Cc1cccc(NC(=S)NNC(=O)c2cc(-c3ccccc3)nc3ccccc23)c1`, the TGI in the experiment on KM12 colon is greater than 100 µM; in the experiment on M14 melanoma, greater than 100 µM; in the experiment with MDA-MB-435 it was 85.7 µM; with MDA-N, greater than 100 µM; with OVCAR-3 ovarian, 66.5 µM; in the experiment on SF-539 CNS, 58.9 µM. Also, the TGI was greater than 100 µM in the experiment on SK-MEL-28 melanoma and 57.1 µM with UO-31 renal.
For the compound `CSC(SC)=C(C#N)C(=O)Nc1ccc(Cl)cc1`, the TGI with KM12 colon was greater than 100 µM; with LOX IMVI melanoma it was 62.1 µM; with M14 melanoma it was greater than 100 µM; in the experiment on MDA-MB-435, greater than 100 µM; in the experiment on MDA-N, greater than 100 µM; in the experiment with OVCAR-3 ovarian it was greater than 100 µM. Besides, the TGI with SF-539 CNS was 67.7 µM; in the experiment on SK-MEL-28 melanoma, greater than 100 µM; in the experiment on UO-31 renal it was 65.2 µM.

Values taken from PubChem BioAssay (NCI).
